From patent publication US11440904B2, “Substituted pyrimidines, pharmaceutical compositions and therapeutic methods thereof” (priority 2017, dated 2022)
“And” between values parts separate entries of the source, which are not always exact repeats. Equal entries are not always repeated.

How the values were obtained:
[1] = target: BTK phosphorylation at tyrosine 223 (Homo sapiens (Human), UniProt Q06187); test: Immunoblot analysis of phospho-BTK(Y223) in Ramos cells; assay type: cell-based; conditions: 1 hr treatment, anti-IgM stimulation, western blot
Procedure: Ramos cells were cultured in RPMI-1640 medium with 10% fetal bovine serum (FBS) and 1% penicillin/streptomycin (Gibco BRL). Before the assay, Ramos cells were counted and seeded at 1×10^6 cells/mL, cultured overnight in RPMI-1640 medium with 10% FBS, the cells were centrifuged at 950 rpm for 10 min., then 1˜2×10^6 cells were split into each tube in 300 μL medium. The cells were treated with certain compounds of Compound 1-24 at 0˜3 μM for 1 hr. in 37° C., then the cells were stimulated with 10 μg/mL of anti-IgM (BioLegend) for 5 min., followed by 3 min. spin at 2000 rpm. After aspirating the supernatant, 60 μL of RIPA lysis buffer (50 mM Tris-HCl, 1 mM EDTA, 1% NP-40, 0.5% sodium deoxycholate, and 0.1% SDS, pH 7.4, 150 mM NaCl, 1 mM Na3VO4) was added to the cell pellet to lyse the cells on ice for 30 min. After spin at 10,000 rpm for 5 min., 60 μL of the cell lysate was transferred to a fresh tube, and 20 μL of 4× LDS buffer was added to the tube. The samples were boiled on a 100° C. heat block for 10 min. 25 μL lysate was loaded on to SDS-PAGE gel (NuPAGE™ Novex™ 4-12% Bis-Tris Midi Protein Gels, cat. no. WG1402BOX, ThermoFisher) for western blotting analysis per the manufacturer's instructions. Antibodies used for immunoblot analysis include Btk and p-Btk(Y223) (cat. no. 3553 and 5082; Cell Signaling Technology, Beverly, Mass.). p-Btk(Y223) (cat. no. GTX61791; GeneTex, Inc., Irvine, Calif.). Membranes were detected using infrared fluorescence dye (IRDye® 800CW Donkey anti-Rabbit IgG (H+L), cat. no. P/N 925-32213; IRDye® 680RD Donkey anti-Mouse IgG (H+L), cat. no. P/N 925-68072 and scanned on a LiCor Odyssey scanner (LiCor Biosciences, Lincoln, Nebr.).

ERK1 kinase = ERK1 kinase (Homo sapiens (Human), UniProt P27361); test: 33P ATP HotSpot kinase assay, ERK1; assay type: biochemical; conditions: 10 μM ATP
Procedure: (§1) (See, e.g., Ma, et al, 2008 Expert Opin Drug Discov. 3(6): 607-621.)
Certain compounds of Compound-1 to Compound-24 were measured for its inhibitory activity on ERK1 kinase. The measurement was carried out in the same process as described above, ERK enzyme was used.

ITK = ITK (Homo sapiens (Human), UniProt Q08881); test: 33P ATP HotSpot kinase assay, ITK; assay type: biochemical; conditions: 10 μM ATP
Procedure: as §1
(§2) Each of Compound-1 to Compound-24 was measured for its inhibitory activity on TEC family kinases, BMX and ITK. The measurement was carried out in the same process as described above, BMX, ITK enzymes were used.

EGFR wt = EGFR wt (Homo sapiens (Human), UniProt P00533); test: 33P ATP HotSpot kinase assay, EGFR wt; assay type: biochemical; conditions: 10 μM ATP
MDA-MB-231 cells = test: Cancer cell growth inhibition, MDA-MB-231; assay type: cell-based; conditions: Homo sapiens, 72 hr, cell viability
Procedure: (§3) In order to test certain compounds of Compounds 1 to 24 for cancer cell growth inhibition, a leukemia cancer cell line EOL-1, and triple negative breast cancer cell line MDA-MB-231 was used.
(§4) EOL-1 and MDA-MB-231 cells were cultured in a RPMI-1640 cell culture medium supplemented with 10% fetal bovine serum (FBS) and 1% penicillin/streptomycin (Gibco BRL).
(§5) The cancer cell lines stored in a liquid nitrogen tank were each quickly thawed at 37° C. water bath, and centrifuged to remove the DMSO in the freezing medium. The resulting cell pellet was mixed with a culture medium, incubated in a culture flask at 37° C. under 5% CO2 for 2 to 3 days. The EOL-1 cells were sub-cultured by 1:5˜10 dilution in fresh culture medium. For MD-MB-231 cells, the culture medium was removed and the remaining cells were washed with PBS (Phosphate Buffered Saline) and trypsinized by trypsin-EDTA. The detached cells were sub-cultured by 1:5˜10 dilution in fresh culture medium.
(§6) For the cell growth inhibition assay, the cells were seeded in 96-well cell culture plates at 5×10^4 cells/well for EOL-1 and 5×10^3 cells/well for MDA-MB-231 cells in 50 μL and incubated at 37° C. under 5% CO2 for 3 to 6 hr. before the compounds were added.
(§7) Certain compounds of Compounds 1-24 were dissolved in dimethylsulfoxide (DMSO) to a concentration of 10 mM. The DMSO solution containing test compound was diluted with a culture medium to a final concentration of 600 μM, and then diluted 100 times to 6 μM as top dose followed by 1:3 serial dilutions, and then add 50 μL diluted compounds to the 50 μL cells, with a final top dose at 3 μM and the plate was incubated at 37° C. under 5% CO2 for 72 hr. The cell viability was determined by Cell Meter™ Fluorimetric Cell Cytotoxicity Assay Kit (AAT Bioquest) according to the manufacturer's instructions. Briefly, thaw and warm up the Assay Solution (Component A) to 37° C., and mix it thoroughly. Add 20 μL/well (96-well plate) of Assay Solution (Component A). Mix the reagents by shaking the plate gently for 30 seconds. Incubate the cells in a 37° C., 5% CO2 incubator for 1-24 hr., protected from light. Monitor the fluorescence intensity (bottom read) at Ex/Em=540/590 nm. Alternatively, read the O.D. at 570 nm (the reference wavelength should be 600 nm) to determine the cell viability in each well.

BTK wt = BTK wt (Homo sapiens (Human), UniProt Q06187); test: 33P ATP HotSpot kinase assay, BTK wt; assay type: biochemical; conditions: 10 μM ATP
Source text: as §1

EOL-1 cells = test: Cancer cell growth inhibition, EOL-1; assay type: cell-based; conditions: Homo sapiens, EOL1, 72 hr, cell viability
Procedure: as §3, §4, §5, §6, §7

[2] = test system: ERK phosphorylation at T202/Y204; test: Cell-based ERK1/2 (T202/Y204) phosphorylation ELISA in EOL-1 cells; conditions: 3 hr or 15 hr treatment, read-out: EC50 phospho-ERK1/2 (T202/Y204)
Procedure: EOL-1 cells were cultured in RPMI-1640 medium with 10% fetal bovine serum (FBS) and 1% penicillin/streptomycin (Gibco BRL). Before the assay, EOL-1 cells were counted and seeded at 1×10^6 cells/well in a 6-well plate, cultured overnight in RPMI-1640 medium with 10% FBS. The cells were treated with certain compounds of Compounds 1-24 at 0˜3 μM for 3 hr. or 15 hr. at 37° C., then the cells were harvested, followed by 5 min. spin at 2000 rpm. After aspirating the supernatant, the cells were washed with cold PBS, span again, then 100 μL of RIPA lysis buffer (50 mM Tris-HCl, 1 mM EDTA, 1% NP-40, 0.5% sodium deoxycholate, and 0.1% SDS, pH 7.4, 150 mM NaCl, 1 mM Na3VO4) was added to the cell pellet to lyse the cells on ice for 30 min. After spin at 12,000 rpm for 5 min., 90 μL of the cell lysate was transferred to a fresh tube.
For an enzyme-linked immunosorbent assay (ELISA) assay, 10 μL of the lysate was used for p-ERK1/2 (T202/Y204) elisa assay. ELISA was done using the ERK 1/2 (pT202/Y204 +Total) ELISA Kit (Abcam, ab176660) according to the manufacturer's instructions. Specifically, add 50 μL of all samples or standards to appropriate wells. Add 50 μL of the Antibody Cocktail to each well. Seal the plate and incubate for 1 hr. at r.t. on a plate shaker set to 400 rpm. Wash each well with 3×350 μL 1× Wash Buffer PT. […] This is an endpoint reading.

[3] = target: FAK phosphorylation at tyrosine 397 (Homo sapiens (Human), UniProt Q05397); test: Cell-based FAK(Y397) phosphorylation ELISA in PC3 cells; conditions: 1 hr treatment, read-out: EC50 phospho-FAK(Y397)
FAK = FAK (Homo sapiens (Human), UniProt Q05397); test: 33P ATP HotSpot kinase assay, FAK; conditions: read-out: IC50 FAK, 10 μM ATP
BMX = BMX (Homo sapiens (Human), UniProt P51813); test: 33P ATP HotSpot kinase assay, BMX; assay type: biochemical; conditions: 10 μM ATP
Procedure: as §1, §2

Chain of EGFR wt (P00533 25-1210): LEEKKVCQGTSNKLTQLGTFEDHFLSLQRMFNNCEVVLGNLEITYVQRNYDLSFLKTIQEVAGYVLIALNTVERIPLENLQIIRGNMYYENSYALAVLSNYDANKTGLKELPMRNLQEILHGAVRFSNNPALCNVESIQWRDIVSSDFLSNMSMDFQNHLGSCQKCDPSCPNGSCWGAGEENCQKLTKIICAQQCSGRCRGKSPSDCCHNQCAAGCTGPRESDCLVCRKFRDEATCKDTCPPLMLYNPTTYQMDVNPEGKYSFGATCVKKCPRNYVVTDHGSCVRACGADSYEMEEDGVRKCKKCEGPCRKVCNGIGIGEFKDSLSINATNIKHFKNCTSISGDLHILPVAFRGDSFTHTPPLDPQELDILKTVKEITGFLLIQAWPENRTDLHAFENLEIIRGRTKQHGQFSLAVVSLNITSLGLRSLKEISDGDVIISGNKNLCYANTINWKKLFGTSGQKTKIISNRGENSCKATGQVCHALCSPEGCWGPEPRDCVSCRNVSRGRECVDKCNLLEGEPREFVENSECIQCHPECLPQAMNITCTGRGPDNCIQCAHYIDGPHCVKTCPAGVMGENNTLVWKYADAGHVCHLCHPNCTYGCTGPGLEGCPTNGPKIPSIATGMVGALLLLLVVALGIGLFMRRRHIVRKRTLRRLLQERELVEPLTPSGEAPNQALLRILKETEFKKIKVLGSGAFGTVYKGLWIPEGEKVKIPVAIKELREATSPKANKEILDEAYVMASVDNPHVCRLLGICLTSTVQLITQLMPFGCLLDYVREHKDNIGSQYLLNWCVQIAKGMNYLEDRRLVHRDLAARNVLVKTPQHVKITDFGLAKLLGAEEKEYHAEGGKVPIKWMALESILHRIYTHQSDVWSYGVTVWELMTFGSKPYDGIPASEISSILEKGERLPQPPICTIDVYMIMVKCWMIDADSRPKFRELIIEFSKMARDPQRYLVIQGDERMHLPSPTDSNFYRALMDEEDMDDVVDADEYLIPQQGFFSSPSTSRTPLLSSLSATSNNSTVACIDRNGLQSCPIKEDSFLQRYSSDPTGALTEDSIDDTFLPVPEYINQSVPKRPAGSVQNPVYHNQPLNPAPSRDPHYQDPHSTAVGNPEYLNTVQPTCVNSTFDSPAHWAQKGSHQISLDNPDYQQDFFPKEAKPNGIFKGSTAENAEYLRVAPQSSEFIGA
Chain of BMX (P51813 whole entry): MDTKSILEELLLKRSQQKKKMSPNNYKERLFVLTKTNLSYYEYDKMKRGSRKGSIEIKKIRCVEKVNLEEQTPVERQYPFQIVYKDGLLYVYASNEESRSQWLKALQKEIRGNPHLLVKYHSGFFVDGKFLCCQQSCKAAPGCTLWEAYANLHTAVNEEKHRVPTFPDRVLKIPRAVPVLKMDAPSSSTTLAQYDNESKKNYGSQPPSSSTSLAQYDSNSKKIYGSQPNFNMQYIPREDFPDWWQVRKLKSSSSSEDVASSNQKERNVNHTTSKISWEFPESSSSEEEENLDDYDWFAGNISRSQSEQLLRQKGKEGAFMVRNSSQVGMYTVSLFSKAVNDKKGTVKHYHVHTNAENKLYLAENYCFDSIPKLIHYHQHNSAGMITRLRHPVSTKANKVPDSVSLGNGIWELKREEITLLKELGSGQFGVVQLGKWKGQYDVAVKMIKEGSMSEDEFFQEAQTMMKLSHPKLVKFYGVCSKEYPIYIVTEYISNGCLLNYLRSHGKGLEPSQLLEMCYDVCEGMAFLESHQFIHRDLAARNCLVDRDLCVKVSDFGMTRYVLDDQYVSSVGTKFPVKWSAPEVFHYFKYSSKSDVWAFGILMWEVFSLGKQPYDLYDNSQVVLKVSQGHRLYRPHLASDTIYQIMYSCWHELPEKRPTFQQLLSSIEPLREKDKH
Chain of ERK1 kinase (P27361 whole entry): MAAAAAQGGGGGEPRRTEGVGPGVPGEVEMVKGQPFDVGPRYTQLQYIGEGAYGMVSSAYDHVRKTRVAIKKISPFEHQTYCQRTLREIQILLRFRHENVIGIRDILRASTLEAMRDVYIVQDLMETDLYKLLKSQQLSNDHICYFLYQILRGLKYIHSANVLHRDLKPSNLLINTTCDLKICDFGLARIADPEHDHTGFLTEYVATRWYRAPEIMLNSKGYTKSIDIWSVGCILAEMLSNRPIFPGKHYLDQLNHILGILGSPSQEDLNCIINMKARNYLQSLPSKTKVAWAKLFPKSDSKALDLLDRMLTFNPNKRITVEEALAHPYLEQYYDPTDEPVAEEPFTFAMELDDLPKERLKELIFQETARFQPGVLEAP
Chain of FAK phosphorylation at tyrosine 397 (Q05397 whole entry): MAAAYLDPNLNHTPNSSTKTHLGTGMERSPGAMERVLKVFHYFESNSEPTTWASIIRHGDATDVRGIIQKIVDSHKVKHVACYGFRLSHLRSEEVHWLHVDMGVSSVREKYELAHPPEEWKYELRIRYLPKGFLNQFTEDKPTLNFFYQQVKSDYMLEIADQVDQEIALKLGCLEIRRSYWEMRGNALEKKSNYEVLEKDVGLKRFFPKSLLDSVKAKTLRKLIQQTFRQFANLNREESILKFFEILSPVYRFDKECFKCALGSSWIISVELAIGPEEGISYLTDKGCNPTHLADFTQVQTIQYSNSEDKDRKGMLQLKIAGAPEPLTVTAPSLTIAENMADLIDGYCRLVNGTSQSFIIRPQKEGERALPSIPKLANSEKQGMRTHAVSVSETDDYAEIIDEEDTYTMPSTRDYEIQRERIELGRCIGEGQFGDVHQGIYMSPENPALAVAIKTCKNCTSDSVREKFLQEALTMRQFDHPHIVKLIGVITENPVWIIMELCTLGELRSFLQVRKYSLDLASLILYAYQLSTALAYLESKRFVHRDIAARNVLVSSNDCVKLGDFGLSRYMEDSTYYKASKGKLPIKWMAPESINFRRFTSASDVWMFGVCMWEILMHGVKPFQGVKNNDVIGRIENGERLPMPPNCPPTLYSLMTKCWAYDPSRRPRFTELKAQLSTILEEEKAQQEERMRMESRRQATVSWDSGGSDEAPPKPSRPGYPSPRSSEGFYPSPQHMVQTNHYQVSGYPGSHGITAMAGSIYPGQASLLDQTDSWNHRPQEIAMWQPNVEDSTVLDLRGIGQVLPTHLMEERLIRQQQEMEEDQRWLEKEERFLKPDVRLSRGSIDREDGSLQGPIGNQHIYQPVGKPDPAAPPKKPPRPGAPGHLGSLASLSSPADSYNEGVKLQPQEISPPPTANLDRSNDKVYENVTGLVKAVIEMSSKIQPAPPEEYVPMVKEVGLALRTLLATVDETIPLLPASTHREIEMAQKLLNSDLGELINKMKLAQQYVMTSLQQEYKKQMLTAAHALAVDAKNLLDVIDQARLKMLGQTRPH
Chain of FAK (Q05397 whole entry): as above
Chain of ITK (Q08881 whole entry): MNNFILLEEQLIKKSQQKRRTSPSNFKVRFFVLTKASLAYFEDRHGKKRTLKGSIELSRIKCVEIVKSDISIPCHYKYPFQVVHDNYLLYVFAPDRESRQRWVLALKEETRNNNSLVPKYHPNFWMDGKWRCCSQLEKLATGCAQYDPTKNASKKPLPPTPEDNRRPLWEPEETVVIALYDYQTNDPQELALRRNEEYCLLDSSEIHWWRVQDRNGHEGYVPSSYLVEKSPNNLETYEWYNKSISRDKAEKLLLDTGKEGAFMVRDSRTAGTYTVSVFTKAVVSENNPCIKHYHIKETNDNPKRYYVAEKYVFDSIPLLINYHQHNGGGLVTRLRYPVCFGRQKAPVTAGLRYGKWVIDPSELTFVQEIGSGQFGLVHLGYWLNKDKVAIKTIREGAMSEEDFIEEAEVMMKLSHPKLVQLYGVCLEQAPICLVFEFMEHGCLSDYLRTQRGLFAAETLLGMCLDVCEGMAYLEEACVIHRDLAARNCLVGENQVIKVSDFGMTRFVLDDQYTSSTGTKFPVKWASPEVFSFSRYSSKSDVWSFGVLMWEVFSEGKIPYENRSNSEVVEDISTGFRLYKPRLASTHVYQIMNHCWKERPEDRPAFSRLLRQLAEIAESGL
Chain of BTK phosphorylation at tyrosine 223 (Q06187 whole entry): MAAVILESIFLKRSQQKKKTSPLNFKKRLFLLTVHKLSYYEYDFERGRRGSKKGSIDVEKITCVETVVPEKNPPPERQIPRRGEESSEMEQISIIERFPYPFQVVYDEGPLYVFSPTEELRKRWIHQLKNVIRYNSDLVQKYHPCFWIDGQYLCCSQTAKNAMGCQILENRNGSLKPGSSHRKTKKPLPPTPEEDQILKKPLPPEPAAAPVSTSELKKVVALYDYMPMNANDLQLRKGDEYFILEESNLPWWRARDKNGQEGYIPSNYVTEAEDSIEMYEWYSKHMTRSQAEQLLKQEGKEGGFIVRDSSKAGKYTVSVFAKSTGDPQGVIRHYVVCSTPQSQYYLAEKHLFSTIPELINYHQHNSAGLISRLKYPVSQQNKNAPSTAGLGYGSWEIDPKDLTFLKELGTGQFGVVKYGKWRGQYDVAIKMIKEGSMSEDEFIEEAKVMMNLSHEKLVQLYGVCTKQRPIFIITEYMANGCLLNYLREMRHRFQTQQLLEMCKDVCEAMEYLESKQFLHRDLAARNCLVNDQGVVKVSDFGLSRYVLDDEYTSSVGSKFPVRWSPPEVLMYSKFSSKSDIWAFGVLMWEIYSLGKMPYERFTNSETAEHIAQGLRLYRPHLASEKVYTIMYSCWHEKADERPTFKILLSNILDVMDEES
Chain of BTK wt (Q06187 whole entry): as above

EC50 [1]: 100 to 1000 nM
IC50 (ERK1 kinase): 6.23 nM
IC50 (ITK): 270 nM
IC50 (EGFR wt): 1900 nM and > 1000 nM
IC50 (MDA-MB-231 cells): 300 nM
IC50 (BTK wt): 2.33 nM
IC50 (EOL-1 cells): 25 nM
EC50 [2]: < 100 nM
EC50 [3]: < 100 nM
IC50 (FAK): 17.4 nM
IC50 (BMX): 1.21 nM
Structure (SMILES): C=CC(=O)Nc1ccccc1Nc1nc(Nc2ccc3c(c2)OCCOCCOCCO3)nc2[nH]cnc12 [Compound-11, N-[2-[[2-(2,5,8,11-tetraoxabicyclo[10.4.0]hexadeca-1(12),13,15-trien-14-ylamino)-9H-purin-6-yl]amino]phenyl]prop-2-enamide]
